Values quoted from earlier work as cited in publication PMC12308805, “Ultrahigh-Throughput Virtual Screening Strategies against PPI Targets: A Case Study of STAT Inhibitors” (Journal of Chemical Information and Modeling, 2025).
Square brackets hold non-standard residues; d marks the D form. Peptide text beside a SMILES is read from it. * marks the point of attachment. pY = N[C@@H](Cc1ccc(OP(=O)(O)O)cc1)C(=O)O; NH(1S-phenylethyl) = C[C@H](N*)c1ccccc1

System: STAT3
Details: cited from earlier work

| Compound | Type (known STAT3 active) |
| --- | --- |
| CC(C)C[C@H](NC(=O)/C=C/c1ccc(OP(=O)(O)O)cc1)C(=O)N1CCC[C@H]1C(=O)N[C@H](C(=O)NCc1ccccc1)[C@@H](C)OC(N)=O [CHEMBL376795] | Active |

Same assay, conditions: sheet 6QHD_actives_decoys, retrospective screening set for STAT3 SH2 domain (PDB 6QHD); decoys are presumed inactives, not tested; ref DUD-E; cited from earlier work

| Compound | Type |
| --- | --- |
| CC(=O)[C@@H]1CC[C@H]2[C@H]3CC=C4C[C@@H](O[C@@H]5O[C@H](CO)[C@@H](O)[C@H](O)[C@H]5O[C@@H]5O[C@H](CO)[C@@H](O)[C@H](O)[C@H]5O)CC[C@]4(C)[C@@H]3CC[C@]12C [Decoy895] | Inactive (Decoy) |
| CCn1cc([C@@H](C)NC(=S)Nc2ccc(S(=O)(=O)Nc3ncccn3)cc2)c(C)n1 [Decoy919] | Inactive (Decoy) |
| CCCCCCCCCCCCCCCCN(C)S(=O)(=O)c1ccc2sc(NNS(=O)(=O)c3ccc(S(N)(=O)=O)cc3)[n+](C)c2c1 [Decoy748] | Inactive (Decoy) |
| O[C@H](CNCCOc1ccccc1OCCNC[C@H](O)COc1cccc2[nH]c3ccccc3c12)COc1cccc2[nH]c3ccccc3c12 [Decoy828] | Inactive (Decoy) |
| CC[C@@]1(c2ccccc2)NC(=O)N(CC(=O)NNC(=O)CCN2CCN(c3ccccc3)CC2)C1=O [Decoy766] | Inactive (Decoy) |
| CCCOC(=O)c1ccc(OCC(=O)N/N=C(/S)NC(=O)c2ccccc2[N+](=O)[O-])cc1 [Decoy731] | Inactive (Decoy) |
| COc1ccc(CNc2nc(NCc3ccc(OC)c(OC)c3)n(C(=O)c3ccc(C(C)(C)C)cc3)n2)cc1OC [Decoy921] | Inactive (Decoy) |
| CCOC(=O)C1=C(CN2CCN(CC(=O)Nc3cccc(F)c3)CC2)NC(=O)N[C@@H]1CC [Decoy866] | Inactive (Decoy) |
| COc1cc(C(=O)O)ccc1O[C@@H]1O[C@H](COC(=O)c2ccc(O)c(O)c2)[C@@H](O)[C@H](O)[C@H]1O [Decoy842] | Inactive (Decoy) |
| COc1c(O)ccc(/C=N/NC(=O)/C(=C\c2ccc(N(C)C)cc2)NC(=O)c2ccccc2)c1[N+](=O)[O-] [Decoy941] | Inactive (Decoy) |
| CC(C)(CO[P@](=O)(O)O[P@](=O)(O)OC[C@H]1O[C@@H](n2cnc3c(N)ncnc32)[C@H](O)[C@@H]1OP(=O)(O)O)[C@@H](O)C(=O)NCCC(=O)NCCS [Decoy847] | Inactive (Decoy) |
| CCOC(=O)C1=C(C)NC(=O)N[C@H]1c1ccc(OCC(=O)N/N=C/c2cc(C)n(-c3ccc(Cl)c(Cl)c3)c2C)c(OC)c1 [Decoy745] | Inactive (Decoy) |
| O=C(O)CN(CC(=O)O)Cc1cc2c(cc1O)Oc1cc(O)c(CN(CC(=O)O)CC(=O)O)cc1C21OC(=O)c2ccccc21 [Decoy739] | Inactive (Decoy) |
| COc1ccc([N+](=O)[O-])cc1N(C[C@H](O)CN(Cc1ccccc1)Cc1ccccc1)S(=O)(=O)c1ccccc1 [Decoy741] | Inactive (Decoy) |

Same assay, conditions: sheet 6QHD_actives_decoys; known STAT3 actives of the retrospective screening set; ref ChEMBL / literature; cited from earlier work

| Compound | Type (known STAT3 active) |
| --- | --- |
| CC(C)C[C@H](NC(=O)/C=C/c1ccc(OP(=O)(O)O)cc1)C(=O)N1C[C@H]2C[C@H]2[C@H]1C(=O)NCCCC(N)=O [CHEMBL577143] | Active |
| NC(=O)CC[C@H](NC(=O)[C@@H]1Cc2cccc3c2N1C(=O)[C@@H](NC(=O)/C=C/c1ccc(OP(=O)(O)O)cc1)CC3)C(=O)O [CHEMBL510008] | Active |
| CC(=O)N[C@@H](Cc1ccc(OP(=O)(O)O)cc1)C(=O)N[C@@H](CC(C)C)C(=O)N1CCC[C@H]1C(=O)N[C@@H](CCC(N)=O)C(=O)N[C@@H](C)c1ccccc1 [CHEMBL370208] (Ac-[pY]LPQ-{NH(1S-phenylethyl)}) | Active |

Same assay, conditions: sheet 6QHD_actives_decoys; retrospective screening set for STAT3 SH2 domain (PDB 6QHD); […]; ref DUD-E; cited from earlier work

| Compound | Type |
| --- | --- |
| O=C(Nc1ccc([N+](=O)[O-])cc1[N+](=O)[O-])[C@@](F)(OC(F)(F)[C@@](F)(OC(F)(F)C(F)(F)C(F)(F)F)C(F)(F)F)C(F)(F)F [Decoy658] | Inactive (Decoy) |
| Cc1ccc(N2C(=O)NC(=O)/C(=C\c3cc(C)n(-c4cc(C(=O)O)cc(C(=O)O)c4)c3C)C2=O)cc1 [Decoy670] | Inactive (Decoy) |
| Nn1c(SCC(=O)Nc2ccc(S(=O)(=O)Nc3nccs3)cc2)nnc1-c1ccncc1 [Decoy406] | Inactive (Decoy) |
| C[C@@H](O)CC(=O)SCCNC(=O)CCNC(=O)[C@@H](O)C(C)(C)CO[P@](=O)(O)O[P@](=O)(O)OC[C@H]1O[C@@H](n2cnc3c(N)ncnc32)[C@@H](O)[C@H]1OP(=O)(O)O [Decoy404] | Inactive (Decoy) |

Same assay, conditions: sheet 6QHD_actives_decoys; retrospective screening set for STAT3 SH2 domain (PDB 6QHD); decoys generated with DUD-E and presumed inactive, not tested; ref DUD-E; cited from earlier work

| Compound | Type |
| --- | --- |
| C[C@H](OC(=O)[C@@](O)(Cc1ccc(O)cc1)[C@H](C)O)[C@@](O)(Cc1ccc(O)cc1)C(=O)OCc1ccc(O[C@H]2O[C@@H](CO)[C@@H](O)[C@@H](O)[C@H]2O)cc1 [Decoy621] | Inactive (Decoy) |
| CCNC(=O)COc1ccc(NC(=O)c2cc(S(=O)(=O)NCc3ccco3)ccc2C)cc1 [Decoy477] | Inactive (Decoy) |
| C=C(CO[C@@H]1[C@H](O)[C@H](CO)O[C@@H](OCC#Cc2ccc(O)c(C(=O)OC)c2)[C@H]1NC(C)=O)C(=O)OCC [Decoy506] | Inactive (Decoy) |
| CSc1ccc(S(=O)(=O)NCC(=O)OCC(=O)Nc2cccc3nsnc23)cc1[N+](=O)[O-] [Decoy445] | Inactive (Decoy) |
| O=C(CCCCCNC(=O)CCCC[C@H]1SC[C@H]2NC(=O)N[C@@H]21)NC/C=C/c1cn([C@@H]2O[C@@H](CO[P@](=O)(O)O[P@](=O)(O)OP(=O)(O)O)[C@@H](O)[C@H]2O)c(=O)nc1O [Decoy440] | Inactive (Decoy) |
| COc1cc(NS(=O)(=O)c2ccc(NC(=S)NC(=O)/C=C/c3cccc4ccccc34)cc2)ncn1 [Decoy659] | Inactive (Decoy) |
| COCCN1C(=O)c2cc(C(=O)Nc3ccc(OC)c(OC)c3)ccc2[C@H]1Nc1ccc(OC)c(OC)c1 [Decoy447] | Inactive (Decoy) |
| COCCOc1ccc(C(F)(F)F)cc1NC(=O)CSc1nnc(-c2ccc(OC)cc2)o1 [Decoy488] | Inactive (Decoy) |
| COC(=O)[C@H]1O[C@H](OCC(=O)[C@@]2(O)CC[C@H]3[C@H]4CCC5=CC(=O)C=C[C@@]5(C)[C@@H]4[C@@H](O)C[C@@]32C)[C@@H](OC(C)=O)[C@H](OC(C)=O)[C@H]1OC(C)=O [Decoy634] | Inactive (Decoy) |
| C=CCn1c(CCCN2C(=O)c3cccc4cccc(c34)C2=O)nnc1SCC(=O)Nc1ccc(S(N)(=O)=O)cc1 [Decoy601] | Inactive (Decoy) |
| Nc1nc(OCc2cc(Br)cs2)c2ncn(CCCCCCCCO[C@H]3O[C@@H](CO)[C@@H](O)[C@@H](O)[C@@H]3O)c2n1 [Decoy331] | Inactive (Decoy) |
| COC(=O)c1sc(NC(=O)CCCS(=O)(=O)c2nc(-c3ccccc3OC)cc(C(F)(F)F)n2)c(C(N)=O)c1C [Decoy427] | Inactive (Decoy) |
| COc1cc(C(=O)NCc2nnc(SCC(=O)Nc3ccc(F)cc3)n2-c2cccc(C)c2)cc(OC)c1OC [Decoy628] | Inactive (Decoy) |
| CCOC(=O)c1c(C)oc(NC(=O)[C@@H](CC)n2c(N)nnc2SCC(=O)OC)c1C(=O)OCC [Decoy617] | Inactive (Decoy) |
| O=C(CSc1cn[nH]n1)Nc1ccc(-c2nc3ccc(NC(=O)CSc4cn[nH]n4)cc3s2)c(O)c1 [Decoy624] | Inactive (Decoy) |
| CCN(CC)C(=O)c1sc(NC(=O)CCSCCC(=O)Nc2sc(C(=O)N(CC)CC)c(C)c2C(=O)OC)c(C(=O)OC)c1C [Decoy632] | Inactive (Decoy) |
| CCOC(=O)c1c(NC(=O)[C@@H](C)Sc2nnc(CNC(=O)c3cc(OC)cc(OC)c3)n2C)sc2c1CCC2 [Decoy533] | Inactive (Decoy) |
| CCOc1ccc([C@@H]2C(C(=O)c3ccc(Cl)cc3)=C(O)C(=O)N2CCCn2ccnc2)cc1OCC [Decoy645] | Inactive (Decoy) |
| COC(=O)[C@@H]1O[C@H](OC/C(=N/NC(N)=O)[C@H]2CC[C@@H]3[C@@H]4CC[C@@H]5C[C@H](OC(C)=O)CC[C@@]5(C)[C@H]4C(=O)C[C@@]23C)[C@@H](OC(C)=O)[C@H](OC(C)=O)[C@H]1OC(C)=O [Decoy497] | Inactive (Decoy) |
| O=C(O)c1ccccc1NS(=O)(=O)c1ccc(NCCCN2CCOCC2)c([N+](=O)[O-])c1 [Decoy387] | Inactive (Decoy) |
| CC[C@H]1OC(=O)[C@@H](C)[C@@H](O[C@@H]2C[C@@](C)(OC)[C@H](O)[C@H](C)O2)[C@@H](C)[C@@H](O[C@H]2O[C@@H](C)C[C@@H](N(C)C)[C@H]2O)[C@](C)(O)C[C@@H](C)/C(=N\OCOCCOC)[C@@H](C)[C@@H](O)[C@@]1(C)O [Decoy580] | Inactive (Decoy) |
| COC(=O)CCSCCO[C@@H]1O[C@H](CO)[C@@H](O[C@@H]2O[C@H](CO)[C@@H](O)[C@@H](O)[C@H]2O)[C@@H](O)[C@H]1NC(C)=O [Decoy352] | Inactive (Decoy) |
| COc1cc([C@H]2C(C(=O)c3nc4c(C)cccn4c3C)=C(O)C(=O)N2CCCN2CCOCC2)ccc1O [Decoy674] | Inactive (Decoy) |
| O=C(O)CCCNC(=O)C(NC(=O)CCSSCCNC(=O)CCCC[C@@H]1SC[C@@H]2NC(=O)N[C@@H]21)C(=O)NCCCC(=O)O [Decoy546] | Inactive (Decoy) |
| Cc1n[nH]c2nc(SCC(=O)NCCc3ccc(S(N)(=O)=O)cc3)[n+](-c3ccc(Br)cc3)c(N)c12 [Decoy390] | Inactive (Decoy) |
| Nn1c(N/N=C/c2c(O)ccc3ccccc23)nnc1SCCC(=O)Nc1ccc2c(c1)C(=O)NC2=O [Decoy439] | Inactive (Decoy) |
| CCOC(=O)c1c(NC(=O)CCSc2nnc(N/N=C/c3ccc(C)cc3)n2N)sc2c1CCCC2 [Decoy449] | Inactive (Decoy) |
| Nn1c(N/N=C/c2ccc([N+](=O)[O-])cc2)nnc1SCC(=O)Nc1ccc(OC(F)(F)F)cc1 [Decoy441] | Inactive (Decoy) |
| CC(=O)O[C@H]1[C@@H](O)[C@@H](O[C@@H](/C=N/c2ccc3c(c2)C(=O)NC3=O)[C@@H](CO)O[C@H](O)/C=N/c2ccc3c(c2)C(=O)NC3=O)O[C@@H](CO)[C@H]1O [Decoy463] | Inactive (Decoy) |
| COC(=O)CNC(=O)C[C@@](C)(O)CC(=O)O[C@H]1[C@@H](O)C[C@@]2(C)C3=C(CC[C@H]2C1(C)C)[C@@]1(C)CC[C@H]([C@H](CO)CC[C@H](O)C(C)(C)O)[C@]1(C)[C@@H](O)C3 [Decoy481] | Inactive (Decoy) |
